The target in assay [1] is A (H1N1)pdm09 neuraminidase (NA). The format is biochemical, influenza A (H1N1)pdm09 virus. The settings on record: read-out: IC50 Median.
The target of assay [2] is A (H3N2) neuraminidase (NA) (Influenza A virus (H3N2), UniProt V9SU56). The format is biochemical.
Assay [3] has as its target B/Victoria neuraminidase (NA). The format is biochemical, influenza B/Victoria lineage virus.
A further assay concerns B/Victoria viruses. Type of assay: cell-based, influenza B/Victoria lineage virus.
The subject of assay [4] is influenza B virus infections. The settings on record: human, in vivo; cited from earlier work.
A further assay relates to type A viruses. The settings on record: cited from earlier work.
A further assay concerns A(H3N2) viruses. Type of assay: cell-based, influenza A(H3N2) virus. The settings on record: read-out: Median EC50.
For a further assay, the system named is A(H1N1)pdm09 viruses. Type of assay: cell-based, influenza A(H1N1)pdm09 virus. The settings on record: read-out: Median EC50.
In assay [5] the test system is type B versus type A viruses. The settings on record: cited from earlier work.

Here are results for 3 compounds from paper PMC12621569 (Antiviral research, 2025).

Where two headings read alike, the source gives them in different places.

For the compound `CCC(CC)[C@H](NC(C)=O)[C@@H]1[C@H](O)[C@@H](C(=O)O)C[C@H]1N=C(N)N` [Peramivir, peramivir], the IC50 in assay [1] is 70 pM; in assay [2] (read-out: IC50 Mean ± SD) it was 90 ± 20 pM; in assay [2] (read-out: IC50 Median) it was 80 pM; in assay [2] (read-out: IC50 Range), 50 to 250 pM; in assay [3] (read-out: IC50 Mean ± SD), 350 ± 110 pM; in assay [3] (read-out: IC50 Median) it was 330 pM. For the same compound, the IC50 in assay [3] (read-out: IC50 Range) is 140 to 880 pM.
Regarding `O=C1c2c(O)c(=O)ccn2N([C@@H]2c3ccccc3SCc3c2ccc(F)c3F)[C@@H]2COCCN12` [Baloxavir, baloxavir], in the assay with B/Victoria viruses, the “median EC50 for B/Victoria viruses, fold higher than influenza A subtypes” value is reported as 5–7 fold. The EC50 stood at 4060 pM in the assay with B/Victoria viruses (read-out: Median EC50), 580 pM in the assay with A(H3N2) viruses and 800 pM in the assay with A(H1N1)pdm09 viruses. For the same compound, in assay [4], the effectiveness in treatment result is on record as “more effective than oseltamivir”. For the same compound, the “elevated baloxavir EC50” value in the assay on type A viruses is given as “• Treatment-emergent • Rarely as natural polymorphisms • Confer elevated baloxavir EC50 (4–112-fold)”.
In the case of `CCOC(=O)C1=C[C@@H](OC(CC)CC)[C@H](NC(C)=O)[C@@H](N)C1` [Oseltamivir, oseltamivir], the “clinical effects against influenza B compared to influenza A virus infections” value in assay [4] is “reduced effects”. Moreover, the “lower activity against type B versus type A viruses” value in assay [5] is given as 47- to 80 fold.

Broadly, the IC50 is the midpoint of a concentration-inhibition curve. The EC50 is the concentration giving half of the maximal effect.
